# Experiments:
# [1] = target: PDE 7 (phosphodiesterase VII) (Homo sapiens (Human), UniProt Q13946); test: PDE 7 inhibiting effect (3H-cAMP hydrolysis, PDE 7 active fraction from MOLT-4 cells); type: biochemical; settings: PDE 7 fraction from MOLT-4 cells, 0.064 μM cAMP, 10 μM rolipram, 2 hours at 25° C.; read-out: PDE7 IC50
# Outline: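 PDE7 taken from the soluble fraction of human MOLT-4 T cells (homogenised in pH 7.5 Tris buffer, 100,000×G spin), partially purified on HiTrap Q with a 0–0.8 M NaCl gradient. Inhibition measured as ³H-cAMP hydrolysis, with product separated using Sephadex-QAE in 10 mM HEPES-Na pH 7.0.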
# [2] = target: PDE 4 (phosphodiesterase IV); test: PDE 4 inhibiting effect (3H-cAMP hydrolysis, PDE 4 active fraction from Balb/c mouse liver); type: biochemical; settings: PDE 4 fraction from Balb/c mice liver, 0.064 μM cAMP, 2 hours at 25° C.; read-out: PDE4 IC50
# Outline: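 PDE4 was taken from the soluble liver fraction of male Balb/c mice (12 weeks), purified on DEAE sepharose with a sodium acetate gradient. Inhibition was measured as hydrolysis of 3H-cAMP. The reaction was followed by Sephadex-QAE treatment in HEPES-Na pH 7.0.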
# Chain of PDE 7 (phosphodiesterase VII) (Q13946 whole entry): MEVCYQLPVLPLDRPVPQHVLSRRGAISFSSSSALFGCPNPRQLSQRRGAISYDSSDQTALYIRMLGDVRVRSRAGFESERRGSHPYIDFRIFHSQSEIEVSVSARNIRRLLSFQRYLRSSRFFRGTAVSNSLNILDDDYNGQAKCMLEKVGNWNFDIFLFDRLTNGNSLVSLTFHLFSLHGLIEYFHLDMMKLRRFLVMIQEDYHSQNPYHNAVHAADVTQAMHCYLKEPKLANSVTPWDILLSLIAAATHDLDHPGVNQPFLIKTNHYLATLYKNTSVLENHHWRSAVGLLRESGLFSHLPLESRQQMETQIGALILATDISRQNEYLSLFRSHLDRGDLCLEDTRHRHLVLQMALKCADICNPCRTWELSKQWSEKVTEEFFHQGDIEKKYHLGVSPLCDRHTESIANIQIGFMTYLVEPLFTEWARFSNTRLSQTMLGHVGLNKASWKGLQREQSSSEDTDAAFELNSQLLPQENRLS
smiles,measurement,setting,value
"CC[C@H](CN1C(=O)CNC1=O)NC(=O)c1cc2c(C)nn(C3CCCCC3)c2s1 [Example 331, 1-Cyclohexyl-N-{(1R)-1-[(2,5-dioxo-1-imidazolidinyl)methyl]propyl}-3-methyl-1H-thieno[2,3-c]pyrazole-5-carboxamide]",IC50,[1],29 nM
same,IC50,[2],4900 nM
"Cc1nn(C2CCCCC2)c2sc(C(=O)NCC(C)(C)CN3C(=O)CNC3=O)cc12 [Example 339, 1-Cyclohexyl-N-[3-(2,5-dioxo-1-imidazolidinyl)-2,2-dimethylpropyl]-3-methyl-1H-thieno[2,3-c]pyrazole-5-carboxamide]",IC50,[1],20 nM
same,IC50,[2],5100 nM
"Cc1nn(C2CCCCC2)c2sc(C(=O)Nc3ccc(N4CCNC(=O)C4)cc3)cc12 [Example 341, 1-Cyclohexyl-3-methyl-N-[4-(3-oxo-1-piperazinyl)phenyl]-1H-thieno[2,3-c]pyrazole-5-carboxamide]",IC50,[1],5 nM
same,IC50,[2],1800 nM
"Cc1nn(C2CCOCC2)c2sc(C(=O)Nc3ccc(N4CCNC(=O)C4)cc3)cc12 [Example 342, 3-Methyl-N-[4(3-oxo-1-piperazinyl)phenyl]-1-tetrahydro-2H-pyran-4-yl-1H-thieno[2,3-c]pyrazole-5-carboxamide]",IC50,[1],28 nM
same,IC50,[2],4600 nM
"Cc1nn(C2CCOCC2)c2sc(C(=O)N[C@H]3CC[C@H](C(=O)N(C)C)CC3)cc12 [Example 349, N-{trans-4-[(Dimethylamino)carbonyl]cyclohexyl}-3-methyl-1-tetrahydro-2H-pyran-4-yl-1H-thieno[2,3-c]pyrazole-5-carboxamide]",IC50,[1],78 nM
same,IC50,[2],2800 nM
"CC(=O)N1CCN(C[C@H]2CC[C@H](NC(=O)c3cc4c(C)nn(C5CCOCC5)c4s3)CC2)CC1 [Example 360, N-{trans-4-[(4-Acetyl-1-piperazinyl)methyl]cyclohexyl}-3-methyl-1-tetrahydro-2H-pyran-4-yl-1H-thieno[2,3-c]pyrazole-5-carboxamide]",IC50,[1],57 nM
same,IC50,[2],7900 nM
"Cc1nn(C2CCCCC2)c2sc(C(=O)Nc3ccc(N4CCC(O)CC4)nc3)cc12 [Example 370, 1-Cyclohexyl-N-[6-(4-hydroxy-1-piperidinyl)-3-pyridinyl]-3-methyl-1H-thieno[2,3-c]pyrazole-5-carboxamide]",IC50,[1],8.7 nM
same,IC50,[2],4100 nM
"Cc1nn(C2CCCCC2)c2sc(C(=O)Nc3ccc(N4CCC(O)CC4)c(F)c3F)cc12 [Example 371, 1-Cyclohexyl-N-[2,3-difluoro-4-(4-hydroxy-1-piperidinyl)phenyl]-3-methyl-1H-thieno[2,3-c]pyrazole-5-carboxamide]",IC50,[1],17 nM
same,IC50,[2],3600 nM
Cc1cc(NC(=O)c2cc3c(C)nn(C4CCCCC4)c3s2)ccc1N1CCC(O)CC1 [Example 372],IC50,[1],11 nM
same,IC50,[2],4000 nM
"Cc1nn(C2CCCCC2)c2sc(C(=O)Nc3ccc(N4CCC(O)CC4)c(C#N)c3)cc12 [Example 373, N-[3-Cyano-4-(4-hydroxy-1-piperidinyl)phenyl]-cyclohexyl-3-methyl-1H-thieno[2,3-c]pyrazole-5-carboxamide]",IC50,[1],4.5 nM
same,IC50,[2],3400 nM
Cc1nn(C2CCCCC2)c2sc(C(=O)Nc3ccc(N4CCC(O)CC4)c(C(=O)O)c3)cc12 [Example 375],IC50,[1],7.2 nM
same,IC50,[2],930 nM
"Cc1nn(C2CCCCC2)c2sc(C(=O)Nc3ccc(C(=O)N4CCC(O)CC4)nc3)cc12 [Example 378, 1-Cyclohexyl-N-{6-[(4-hydroxy-1-piperidinyl)carbonyl]-3-pyridinyl}-3-methyl-1H-thieno[2,3-c]pyrazole-5-carboxamide]",IC50,[1],44 nM
same,IC50,[2],2500 nM
"Cc1nn(C2CCCCC2)c2sc(C(=O)Nc3ccc(C(=O)NCCO)nc3)cc12 [Example 379, 1-Cyclohexyl-N-(6-{[(2-hydroxyethyl)amino]carbonyl}-3-pyridinyl)-3-methyl-1H-thieno[2,3-c]pyrazole-5-carboxamide]",IC50,[1],13 nM
same,IC50,[2],1200 nM
"Cc1nn(C2CCCCC2)c2sc(C(=O)Nc3ccc(C(=O)N4CCN(C)CC4)nc3)cc12 [Example 380, 1-Cyclohexyl-3-methyl N-{6-[(4-methyl-1-piperazinyl)carbonyl]-3-pyridinyl}-1H-thieno[2,3-c]pyrazole-5-carboxamide]",IC50,[1],56 nM
same,IC50,[2],1500 nM
Cc1nn(C2CCCCC2)c2sc(C(=O)Nc3ccc(C(=O)NCCN(C)C)nc3)cc12 [Example 381],IC50,[1],22 nM
same,IC50,[2],670 nM
"Cc1nn(C2CCCCC2)c2sc(C(=O)Nc3ccc(C(=O)N[C@H]4CC[C@H](O)CC4)nc3)cc12 [Example 382, 1-Cyclohexyl-N-(6-{[(trans-4-hydroxycyclohexyl)amino]carbonyl}-3-pyridinyl)-3-methyl-1H-thieno[2,3-c]pyrazole-5-carboxamide]",IC50,[1],25 nM
same,IC50,[2],620 nM
Cc1nn(C2CCCCC2)c2sc(C(=O)Nc3ccc(C(=O)N4CCCN(C)CC4)nc3)cc12 [Example 383],IC50,[1],74 nM
same,IC50,[2],2400 nM
"CC(=O)N1CCN([C@H]2CC[C@H](NC(=O)c3cc4c(C)nn(C5CCOCC5)c4s3)CC2)CC1 [Example 395, N-[trans-4-(4-Acetyl-1-piperazinyl)cyclohexyl]-3-methyl-1-tetrahydro-2H-pyran-4-yl-1H-thieno[2,3-c]pyrazole-5-carboxamide]",IC50,[1],19 nM
same,IC50,[2],1400 nM
"Cc1nn(C2CCOCC2)c2sc(C(=O)N[C@H]3CC[C@H](N4CCN(S(C)(=O)=O)CC4)CC3)cc12 [Example 396, 3-Methyl-N-{trans-4-[4-(methylsulfonyl)-1-piperazinyl]cyclohexyl}-1-tetrahydro-2H-pyran-4-yl-1H-thieno[2,3-c]pyrazole-5-carboxamide]",IC50,[1],22 nM
same,IC50,[2],900 nM
"Cc1nn(C2CCOCC2)c2sc(C(=O)N[C@H]3CC[C@H](N4C[C@@H](C)O[C@@H](C)C4)CC3)cc12 [Example 402, N-[trans-4-(cis-2,6-Dimethylmorpholinyl)cyclohexyl]-3-methyl-1-tetrahydro-2H-pyran-4-yl-1H-thieno[2,3-c]pyrazole-5-carboxamide]",IC50,[1],19 nM
same,IC50,[2],7300 nM
"Cc1nn(C2CCCCC2)c2sc(C(=O)Nc3ccc(CO)nc3)cc12 [Example 404, 1-Cyclohexyl-N-[6-(hydroxymethyl)-3-pyridinyl]-3-methyl-1H-thieno[2,3-c]pyrazole-5-carboxamide]",IC50,[1],32 nM
same,IC50,[2],3500 nM
"Cc1nn(C2CCCCC2)c2sc(C(=O)Nc3ccc(CN4CCC(O)CC4)nc3)cc12 [Example 413, 1-Cyclohexyl-N-{6-[(4-hydroxy-1-piperidinyl)methyl]-3-pyridinyl}-3-methyl-1H-thieno[2,3-c]pyrazole-5-carboxamide]",IC50,[1],30 nM
same,IC50,[2],2500 nM
"CC(=O)N1CCN(Cc2ccc(NC(=O)c3cc4c(C)nn(C5CCCCC5)c4s3)cn2)CC1 [Example 414, N-{6-[(4-Acetyl-1-piperazinyl)methyl]-3-pyridinyl}-1-cyclohexyl-3-methyl-1H-thieno[2,3-c]pyrazole-5-carboxamide]",IC50,[1],35 nM
same,IC50,[2],2800 nM
"Cc1nn(C2CCOCC2)c2sc(C(=O)N[C@H]3CC[C@H](N4CCN(C)CC4=O)CC3)cc12 [Example 415, 3-Methyl-N-[trans-4-(4-methyl-2-oxo-piperazinyl)cyclohexyl]-1-tetrahydro-2H-pyran-4-yl-1H-thieno[2,3-c]pyrazole-5-carboxamide]",IC50,[1],93 nM
same,IC50,[2],5100 nM
"Cc1nn(C2CCCCC2)c2sc(C(=O)N[C@H]3CC[C@H](N4CCN(C)CC4=O)CC3)cc12 [Example 416, 1-Cyclohexyl-3-methyl-N-[trans-4-(4-methyl-2-oxo-1-piperazinyl)-cyclohexyl]-1H-thieno[2,3-c]pyrazole-5-carboxamide]",IC50,[1],17 nM
same,IC50,[2],1300 nM
"Cc1nn(C2CCOCC2)c2sc(C(=O)N[C@H]3CC[C@H](N4CCNC(=O)C4)CC3)cc12 [Example 417, 3-Methyl-N-[trans-4-(3-oxo-piperazinyl)cyclohexyl]-1-tetrahydro-2H-pyran-4-yl-1H-thieno[2,3-c]pyrazole-5-carboxamide]",IC50,[1],63 nM
same,IC50,[2],7000 nM
"Cc1nn(C2CCOCC2)c2sc(C(=O)N[C@H]3CC[C@H](N4CCN(C)C(=O)C4)CC3)cc12 [Example 419, 3-Methyl-N-[trans-4-(4-methyl-3-oxo-1-piperazinyl)cyclohexyl]-1-tetrahydro-2H-pyran-4-yl-1H-thieno[2,3-c]pyrazole-5-carboxamide]",IC50,[1],29 nM
same,IC50,[2],5700 nM
Cc1nn(C2CCOCC2)c2sc(C(=O)N[C@H]3CC[C@H](N4CCC(CO)CC4)CC3)cc12 [Example 423],IC50,[1],72 nM
same,IC50,[2],8100 nM
"Cc1nn(C2CCOCC2)c2sc(C(=O)N[C@H]3CC[C@H](N4CCC(O)CC4)CC3)cc12 [Example 425, N-[trans-4-(4-Hydroxy-1-piperidinyl)cyclohexyl]-3-methyl-1-tetrahydro-2H-pyran-4-yl-1H-thieno[2,3-c]pyrazole-5-carboxamide]",IC50,[1],90 nM
same,IC50,[2],13000 nM
"Cc1nn(C2CCOCC2)c2sc(C(=O)N[C@H]3CC[C@H](N4CCC(C(=O)N(C)C)CC4)CC3)cc12 [Example 428, N-(trans-4-{4-[(Dimethylamino)carbonyl]-1-piperidinyl}cyclohexyl)-3-methyl-1-tetrahydro-2H-pyran-4-yl-1H-thieno[2,3-c]pyrazole-5-carboxamide]",IC50,[1],50 nM
same,IC50,[2],9700 nM
"CCN1CCN([C@H]2CC[C@H](NC(=O)c3cc4c(C)nn(C5CCOCC5)c4s3)CC2)CC1=O [Example 436, N-[trans-4-(4-Ethyl-3-oxo-1-piperazinyl)cyclohexyl]-3-methyl-1-tetrahydro-2H-pyran-4-yl-1H-thieno[2,3-c]pyrazole-5-carboxamide]",IC50,[1],30 nM
same,IC50,[2],7200 nM
